Measurements taken from PMC11167047 (Cell Death Discovery, 2024).

How the values were obtained:
[1] = biological target: T1, CDK1/cyclin B1 (Homo sapiens, UniProt P06493); experiment: luminescence-based kinase activity assay; assay type: biochemical; conditions: result in words
T1 construct: purchased BPS Bioscience #79597
Procedure: (§1) The activity of specific CDKs and their cyclins was assessed using CDK Kits from BPS Bioscience (CDK1/cyclin B1 #79597; CDK2/cyclin A2 #79599; CDK9/cyclin T #79628). The assay was conducted following the manufacturer’s guidelines. In summary, the CDK/cyclin complexes, as purified recombinant enzymes, were allowed to react with CDK substrate peptide, ATP, and kinase buffer in the presence or absence of meriolins. The reaction was initiated by adding diluted CDK/cyclin enzyme to the wells and incubating for 45 min at 30 °C. After the incubation, the Kinase-Glo-Max® reagent was added as a detection reagent, and the resulting luciferase reaction produced luminescence, which was inversely correlated with the kinase activity.
(§2) The luminescent CDK/cyclin assay is a method that quantifies the amount of ATP remaining in the solution after a kinase reaction. Luminescence was measured using the Synergy Mix microplate reader as an endpoint measurement. Data analyses were performed according to the manufacturer’s instructions, and statistical analysis was carried out using one-way ANOVA, with corrections made by Bonferroni’s multiple comparison test. The significance level was indicated as ****p ≤ 0.0001.

[2] = biological target: T2, CDK9/cyclin T (Homo sapiens, UniProt P50750); experiment: luminescence-based kinase activity assay; assay type: biochemical; conditions: result in words
T2 construct: purchased BPS Bioscience #79628
Procedure: as §1, §2

[3] = biological target: T3, CDK2/cyclin A2 (Homo sapiens, UniProt P24941); experiment: luminescence-based kinase activity assay; assay type: biochemical; conditions: result in words
T3 construct: purchased BPS Bioscience #79599
Procedure: as §1, §2

[4] = system: CLL68 chronic lymphocytic leukemia cells; conditions: read-out: IC50 (CLL68); primary patient cells, 24 h
Text: For chronic lymphocytic leukemia, mononuclear cells were isolated from peripheral blood using a Ficoll gradient (GE Healthcare). Primary cells from other lymphoma entities were isolated as previously described [80]. All cells were cryopreserved after isolation and thawed as previously described [81].
The resazurin reduction assay, which is also known as AlamarBlue® assay, was used for the determination of cell viability in all cytotoxicity determinations shown in the present work, as previously described [22]. Briefly, cells were seeded at a specific density depending on the incubation time (24 h: 1 × 10^6 cells/ml) in a 96-well plate and incubated with increasing compound concentrations (0.01–30 µM). After the specified treatment time, resazurin (Sigma, #R7017) was added to a final concentration of 40 µM. […] The viability of control cells was set to 100% and all other values were normalized to the control condition, the dose-response curves were then fitted with Prism v7.01 (GraphPad software, La Jolla, CA, USA).

[5] = system: cyclin B1 expression; experiment: immunoblotting of cyclin B1 in Ramos cells; assay type: cell-based, human; conditions: 24 h
Procedure: (§3) Cells were seeded at a density of 2 × 10^6 cells, treated as specified and harvested by centrifugation at 3000 rpm for 5 min, followed by freezing in liquid nitrogen. The cell pellets were thawed on ice and quick-frozen and defrozen in liquid nitrogen for three times, then lysed on ice in lysis buffer (20 mM Tris-HCl, 150 mM NaCl, 1% v/v Triton X-100, 0.5 mM EDTA, 10 mM NaF, 2.5 mM Na4P2O7, protease inhibitor (Sigma, #P2714)) for 30 min, accompanied by vortexing. Subsequently, centrifugation 13,300 rpm for 15 min purified cell lysates from cell debris. The supernatant was transferred to a new tube and the protein concentration was determined by Bradford assay. The samples were diluted with sample buffer. SDS-Page and Western Blot were conducted in accordance with standard workflows. […] The antibody baths were stored at 4 °C and re-used.
(§4) The density of the individual protein band was determined using Image Studio^TM Lite Version 5.2. The density of each protein was divided by the average of all bands of this protein. The ratios of the protein of interest were normalized to the ratio of the respective loading control. To determine the fold change, each normalized ratio was divided by the normalized band of the control line (untreated cells). Fold change is 1 for the control line, n ≥ 2. The results are shown as mean ± standard deviation and were visualized with GraphPad Prism 7.

[6] = system: Ramos cells; experiment: cell cycle analysis (Nicoletti assay); assay type: cell-based, human; conditions: 24 h, sublethal dose, with QVD
Procedure: DNA content during cell cycle and hypodiploid apoptotic nuclei were measured by the method of Nicoletti et al.. […] Hypodiploid nuclei were measured in logarithmic mode for apoptosis determination. Flow-cytometry analysis was performed on an LSRFortessa^TM (Becton, Dickinson, Heidelberg, Germany) and data analysis was performed using FlowJo_V10 (BD Biosciences).

[7] = system: retinoblastoma (RB) protein phosphorylation; experiment: immunoblotting of phospho-RB in Ramos cells; assay type: cell-based, human; conditions: for phosphorylation of RB at p-Ser249 and p-Thr252: 0.1 or 1 µM (R547 1 µM)
Procedure: as §3, §4

[8] = system: CDK9 and cyclin T1 protein levels; experiment: immunoblotting of CDK9 and cyclin T1 in Ramos cells; assay type: cell-based, human; conditions: 0.1 and 1 µM, 4-24 h
Procedure: as §3, §4

[9] = system: KOPTK1; conditions: read-out: IC50 (KOPTK1); cytotoxicity, 24 h
Procedure: The resazurin reduction assay, which is also known as AlamarBlue® assay, was used for the determination of cell viability in all cytotoxicity determinations shown in the present work, as previously described [22]. Briefly, cells were seeded at a specific density depending on the incubation time (24 h: 1 × 10^6 cells/ml) in a 96-well plate and incubated with increasing compound concentrations (0.01–30 µM). After the specified treatment time, resazurin (Sigma, #R7017) was added to a final concentration of 40 µM. […] The viability of control cells was set to 100% and all other values were normalized to the control condition, the dose-response curves were then fitted with Prism v7.01 (GraphPad software, La Jolla, CA, USA). The reduction of resazurin to resorufin is proportional to aerobic respiration; therefore, it is used as a measure for the cell viability and cytotoxicity of a tested compound.

[10] = system: Ramos cells; experiment: BrdU cell proliferation assay; assay type: cell-based, human; conditions: 24 h, non-lethal doses
Procedure: The Bromodeoxyuridine (BrdU) Cell Proliferation kit from Millipore (#QIA58-1000TEST) was used to measure proliferation of cells. The manufacturer protocol has been optimized as described in the following. 1 × 10^4 cells per well were seeded in a 96-well plate. The cells were pre-incubated with the compounds of interest for 1 h. Following this, the BrdU solution was added and the cells were incubated for a total of 24 h. BrdU is an analog of the nucleoside thymidine and is incorporated into the DNA of dividing cells during replication. Culture medium was removed and cells were fixed and denatured with Fixative/Denaturing solution for 30 min at room temperature. Since suspension cells were used, they had to be centrifuged at 1200 rpm for 5 min after each following step. After, the anti-BrdU-antibody was incubated for 1 h at RT. Cells were washed three times with washing buffer. The secondary antibody, which is coupled to HRP (horseradish peroxidase) was incubated for 30 min at RT. Again, cells were washed three times with washing buffer.
Then, the substrate solution was added, that contained TMB (3,3’,5,5’-Tetramethylbenzidine), which is oxidized by HRP. Oxidation of TMB causes a color change from colorless to blue. The intensity of color change is correlated with the number of bound peroxidases, which depends on the quantity of primary antibodies and therefore on the content of the incorporated BrdU. If the cells are not proliferating, no BrdU is incorporated, resulting in a weak signal.
After 15 min incubation time the stopping reagent was added, causing a pH change and resulting in a color change from blue to yellow. The colored reaction product was quantified at 450 nm using a spectrophotometer. For all measurements, three technical replicates were made. The control was set to 100% proliferation, and the treated cells were normalized to the control. The results were visualized using GraphPad Prism 7.

[11] = system: HeLa cells; experiment: EdU incorporation by microscopy; assay type: cell-based, human; conditions: 24 h, non-lethal dose (IC25)
Procedure: The EdU-assay, utilizing the EdU-click 488 kit from Baseclick GmbH (#BCK-TCell-FC488) was performed according to manufacturer’s instructions. The EdU-assay is employed to measure the incorporation of 5-ethynyl-2’-deoxyuridine (EdU) into DNA, providing a means to assess cell proliferation. Cell proliferation involves the synthesis of new DNA during the S phase of the cell cycle. When cells are exposed to 5-EdU, they incorporate the compound into their DNA at thymidine bases during S phase. A fluorophore-labeled azide reacts with the incorporated EdU, enabling its detection through microscopy (sigmaaldrich.com). The experimental process involves seeding cells and allowing them to grow to the desired density, applying the indicated treatments, and subsequently adding EdU to the media. After fixation and permeabilization, the EdU detection, along with DAPI-stained nuclei, is carried out using fluorescence microscopy.

T1 sequence (P06493 whole entry): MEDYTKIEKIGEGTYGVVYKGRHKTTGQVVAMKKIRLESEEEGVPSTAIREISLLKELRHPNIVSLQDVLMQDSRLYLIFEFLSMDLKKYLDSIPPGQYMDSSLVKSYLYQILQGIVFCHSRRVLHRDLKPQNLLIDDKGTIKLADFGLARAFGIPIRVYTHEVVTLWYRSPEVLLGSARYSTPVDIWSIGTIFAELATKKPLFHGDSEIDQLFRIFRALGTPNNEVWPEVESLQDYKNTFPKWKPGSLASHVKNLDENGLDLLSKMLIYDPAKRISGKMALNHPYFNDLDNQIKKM
T1 sequence (P14635 whole entry partner): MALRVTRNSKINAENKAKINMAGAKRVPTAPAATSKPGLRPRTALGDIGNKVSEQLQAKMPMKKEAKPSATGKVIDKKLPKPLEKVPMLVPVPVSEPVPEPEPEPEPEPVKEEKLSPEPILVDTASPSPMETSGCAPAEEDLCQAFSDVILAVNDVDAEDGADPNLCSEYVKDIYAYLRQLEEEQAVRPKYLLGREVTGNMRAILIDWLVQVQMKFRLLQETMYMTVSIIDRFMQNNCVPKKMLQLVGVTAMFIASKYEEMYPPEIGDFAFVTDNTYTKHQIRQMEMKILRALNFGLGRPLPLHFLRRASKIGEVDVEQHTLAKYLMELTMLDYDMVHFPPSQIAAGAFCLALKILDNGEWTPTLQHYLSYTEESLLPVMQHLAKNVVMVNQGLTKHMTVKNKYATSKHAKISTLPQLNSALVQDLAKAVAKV
T2 sequence (P50750 whole entry): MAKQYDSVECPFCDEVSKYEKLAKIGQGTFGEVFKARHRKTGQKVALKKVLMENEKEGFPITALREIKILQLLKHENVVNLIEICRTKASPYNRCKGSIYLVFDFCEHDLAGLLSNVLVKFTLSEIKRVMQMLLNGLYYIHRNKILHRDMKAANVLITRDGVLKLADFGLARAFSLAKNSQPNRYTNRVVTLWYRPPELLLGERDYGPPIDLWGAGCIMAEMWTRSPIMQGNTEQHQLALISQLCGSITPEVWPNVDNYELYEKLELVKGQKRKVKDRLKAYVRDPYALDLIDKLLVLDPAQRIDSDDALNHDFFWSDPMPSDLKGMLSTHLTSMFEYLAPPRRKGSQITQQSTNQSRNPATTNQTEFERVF
T2 sequence (O60563 whole entry partner): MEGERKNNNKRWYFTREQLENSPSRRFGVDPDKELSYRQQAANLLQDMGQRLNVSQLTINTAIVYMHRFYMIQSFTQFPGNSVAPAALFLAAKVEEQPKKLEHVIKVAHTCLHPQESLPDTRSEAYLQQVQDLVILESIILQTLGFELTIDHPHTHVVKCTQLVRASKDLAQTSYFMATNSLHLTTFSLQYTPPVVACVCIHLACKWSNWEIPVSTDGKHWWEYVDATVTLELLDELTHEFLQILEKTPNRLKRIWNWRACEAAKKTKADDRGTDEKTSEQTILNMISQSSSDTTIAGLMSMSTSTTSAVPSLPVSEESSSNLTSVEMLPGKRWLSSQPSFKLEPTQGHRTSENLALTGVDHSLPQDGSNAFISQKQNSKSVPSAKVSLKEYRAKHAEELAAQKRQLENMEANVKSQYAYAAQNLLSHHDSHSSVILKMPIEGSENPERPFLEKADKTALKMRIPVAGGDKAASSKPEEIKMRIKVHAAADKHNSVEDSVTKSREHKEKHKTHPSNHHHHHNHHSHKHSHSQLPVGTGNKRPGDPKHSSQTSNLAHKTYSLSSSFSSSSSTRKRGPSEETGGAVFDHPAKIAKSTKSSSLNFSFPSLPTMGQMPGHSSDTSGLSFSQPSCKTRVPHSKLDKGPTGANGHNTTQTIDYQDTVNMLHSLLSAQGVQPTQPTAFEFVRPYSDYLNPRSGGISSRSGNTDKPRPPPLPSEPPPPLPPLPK

SMILES | inhibition of CDK1/cyclin B1 [1] | inhibition of CDK9/cyclin T [2] | inhibition of CDK2/cyclin A2 [3] | IC50 [4] | expression of cyclin B1 [5] | effect on cell cycle phases [6] | phosphorylation of RB at p-Ser612 and p-Thr821 ([7]; 0.1 and 1 µM, up to 24 h) | phosphorylation of RB at p-Ser612 and p-Thr821 ([7]; 0.1 and 1 µM, up to 24 h, listed as Meriolin 16) | phosphorylation of RB at p-Ser249 and p-Thr252 ([7]; up to 24 h) | CDK9 and cyclin T1 protein levels [8] | IC50 [9] | proliferation (BrdU incorporation) [10] | EdU incorporation (proliferation) reduced to [11] | phosphorylation of RB at Ser612 ([7]; 0.1 and 1 µM) | phosphorylation of RB at p-Thr821 ([7]; 0.1 and 1 µM (R547 1 µM), up to 24 h)
COc1ccnc2[nH]cc(-c3cc(N)nc(N)c3)c12 [meriolin 16] | inhibited | inhibited | inhibited | 60 nM | reduced the expression of cyclin B1 | only a slight shift to G2 phase | no longer phosphorylated | loss of the phosphorylations | reduced the phosphorylation | decrease | 10 nM | substantial decrease in proliferation | 10% |  | 
c1ccc(CNc2cc(-c3c[nH]c4ncccc34)ccn2)cc1 [meriolin 36] | inhibited | inhibited | inhibited | 420 nM | rather increased the expression of cyclin B1 | only a slight shift to G2 phase | This effect was not observed |  | no effect | relatively stable | 1220 nM | substantial decrease in proliferation | 10% | increase of the phosphorylation | no notable change
